Assay results: patent publication US6680318B2, “Piperazinomethylbenzamides as delta-opioid receptor agonists” (AstraZeneca AB, priority 1999, dated 2004)
Where a name gives a salt, the structure may show the parent alone. Read-outs that look alike come from different tables or passages of the source.

Tests used:
HDelta = molecular target: T1, HDelta (Homo sapiens, UniProt P41143); experiment: HDelta agonist activity (EC50, % EMAX); type: biochemical
T1 construct: expressed in transfected cells; host or cells: human 293S cells (geneticin-selected)
T1 sequence (P41143 whole entry): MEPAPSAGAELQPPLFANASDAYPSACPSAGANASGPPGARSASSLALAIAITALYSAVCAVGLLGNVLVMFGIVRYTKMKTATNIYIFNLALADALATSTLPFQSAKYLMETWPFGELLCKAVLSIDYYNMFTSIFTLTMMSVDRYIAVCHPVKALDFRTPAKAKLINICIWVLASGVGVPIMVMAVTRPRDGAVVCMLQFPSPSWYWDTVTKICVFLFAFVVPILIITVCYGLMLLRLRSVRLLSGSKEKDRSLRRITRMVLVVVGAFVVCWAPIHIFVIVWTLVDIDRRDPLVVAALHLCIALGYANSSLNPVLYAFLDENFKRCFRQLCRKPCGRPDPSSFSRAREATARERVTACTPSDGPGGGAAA

Rat Brain = Rat Brain (Rattus norvegicus, UniProt P33533); experiment: Rat Brain agonist activity (EC50, % EMAX); type: biochemical
Sequence of Rat Brain (P33533 whole entry): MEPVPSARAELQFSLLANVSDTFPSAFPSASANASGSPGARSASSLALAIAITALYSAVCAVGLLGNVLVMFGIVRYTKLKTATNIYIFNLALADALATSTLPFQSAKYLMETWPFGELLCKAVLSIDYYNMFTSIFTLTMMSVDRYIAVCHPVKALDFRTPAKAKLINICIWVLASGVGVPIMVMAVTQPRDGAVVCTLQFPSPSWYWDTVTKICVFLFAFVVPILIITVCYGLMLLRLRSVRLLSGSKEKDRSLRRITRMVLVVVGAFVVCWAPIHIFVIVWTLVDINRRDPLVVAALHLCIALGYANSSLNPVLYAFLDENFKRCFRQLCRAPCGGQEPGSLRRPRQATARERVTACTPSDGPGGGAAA

[1] = molecular target: T2, cloned human δ receptors (HDelta) (Homo sapiens, UniProt P41143); experiment: Binding assay on membranes of 293S cells expressing cloned human δ receptor (HDelta)
T2 construct: expressed in transfected cells; host or cells: human 293S cells (geneticin-selected)
T2 sequence (P41143 whole entry): as the sequence (P41143 whole entry) above

Mouse Brain = molecular target: T3, Mouse Brain (Mus musculus, UniProt P32300); experiment: Mouse Brain agonist activity (EC50, % EMAX); type: biochemical
T3 construct: from tissue; host or cells: mouse brain
T3 sequence (P32300 whole entry): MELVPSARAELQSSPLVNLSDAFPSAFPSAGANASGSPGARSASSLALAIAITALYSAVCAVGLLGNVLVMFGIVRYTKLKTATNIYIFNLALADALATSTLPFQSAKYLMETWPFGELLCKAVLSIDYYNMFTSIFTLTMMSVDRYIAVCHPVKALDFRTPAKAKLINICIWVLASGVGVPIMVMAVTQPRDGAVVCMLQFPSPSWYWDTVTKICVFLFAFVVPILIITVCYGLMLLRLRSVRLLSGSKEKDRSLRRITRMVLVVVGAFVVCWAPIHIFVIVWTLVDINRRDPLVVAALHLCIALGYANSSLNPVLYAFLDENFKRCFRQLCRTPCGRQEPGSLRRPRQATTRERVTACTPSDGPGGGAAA

[2] = MLM metabolic stability (% remaining); type: in vitro ADME, mouse
[3] = RLM metabolic stability (% remaining); type: in vitro ADME, rat
[4] = 10000 (concentration, unit not given)
[5] = 100000 (concentration, unit not given)

`CCN(CC)C(=O)c1ccc(C(c2cccc3c2OC(C)(C)C3)N2CCN(Cc3cccnc3)CC2)cc1` (stereo not shown) [Example 3, 4-{(2,2-dimethyl-2,3-dihydro-1-benzofuran-7-yl)[4-(3-pyridinylmethyl)-1-piperazinyl]methyl}-N,N-diethylbenzamide Dihydrochloride] showed an Emax (HDelta) of 103%, an EC50 (HDelta; read-out: HDelta EC50) of 19.5 nM and an Emax (Rat Brain) of 93%.

In the case of `CCN(CC)C(=O)c1ccc(C(c2cccc3c2OC(C)(C)C3)N2CCN(Cc3ccccn3)CC2)cc1` (stereo not shown) [Example 4, 4-{(2,2-dimethyl-2,3-dihydro-1-benzofuran-7-yl)[4-(2-pyridinylmethyl)-1-piperazinyl]methyl}-N,N-diethylbenzamide Ditrifuroacetae], the IC50 [1] is reported as 3.26 nM, the EC50 (HDelta) is reported as 7.38 nM and the Emax (HDelta) is reported as 104%. It also gave an Emax (Rat Brain) of 118%, an EC50 (Mouse Brain) of 144 nM and an Emax (Mouse Brain) of 118%. The “MLM 10000 % rem.” value [2, 4] was 44.5%, the “MLM 100000 % rem.” value [2, 5] was 93% and the “RLM 10000 % rem.” value [3, 4] was 42.5%. For the same molecule, the “RLM 100000 % rem.” value [3, 5] was 90.5%.
